Laboratory results published in PubChem BioAssay AID328 (DTP/NCI, 2004).
Where “and” joins values, the source holds several entries; their conditions need not be identical. Equal values may be shown once. Toxic doses and inconclusive results are not listed. How the source made its calls: active means survival T/C of 150% or more; inactive means T/C below 125% in these data.

Tested on: BDF1 mice, P388 leukemia ip, median survival T/C
Experiment: NCI In Vivo Anticancer Drug Screen. Data for tumor model P388 Leukemia (intraperitoneal) in B6D2F1 (BDF1) mice
Settings: endpoint: median survival time, higher = longer survival
Outline: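 T/C = treated-group survival ÷ vehicle-control survival; tumour transplanted into mice before dosing.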

[1] = dose: 6.25 mg/kg/injection, schedule: Q01DX009 (ip), vehicle: Klucel (hydroxypropylcellulose) (HPC)
[2] = dose: 12.5 mg/kg/injection, schedule: Q01DX009 (ip), vehicle: Klucel (hydroxypropylcellulose) (HPC)
[3] = dose: 25.0 mg/kg/injection, schedule: Q01DX009 (ip), vehicle: saline with Tween-80
[4] = dose: 50.0 mg/kg/injection, schedule: Q01DX009 (ip), vehicle: saline with Tween-80
[5] = dose: 100.0 mg/kg/injection, schedule: Q01DX009 (ip), vehicle: saline with Tween-80
[6] = dose: 100.0 mg/kg/injection, schedule: Q04DX003 (ip), vehicle: saline with Tween-80
[7] = dose: 200.0 mg/kg/injection, schedule: Q01DX009 (ip), vehicle: saline with Tween-80
[8] = dose: 50.0 mg/kg/injection, schedule: Q01DX009 (ip), vehicle: saline
[9] = dose: 100.0 mg/kg/injection, schedule: Q01DX009 (ip), vehicle: saline
[10] = dose: 100.0 mg/kg/injection, schedule: Q01DX001 (ip), vehicle: saline with Tween-80
[11] = dose: 200.0 mg/kg/injection, schedule: Q01DX001 (ip), vehicle: saline with Tween-80

Measured: T/C

O=C1CCC2(CCCC2)c2ccccc21
inactive: dose: 25.0 mg/kg/injection, schedule: Q01DX009 (ip), vehicle: water 95 % of control | dose: 50.0 mg/kg/injection, schedule: Q01DX009 (ip), vehicle: water 97 % of control | dose: 100.0 mg/kg/injection, schedule: Q01DX009 (ip), vehicle: water 106 % of control | dose: 200.0 mg/kg/injection, schedule: Q01DX009 (ip), vehicle: water 103 % of control | dose: 400.0 mg/kg/injection, schedule: Q01DX009 (ip), vehicle: water 106 % of control

Fc1ccc(P(c2ccc(F)cc2)c2ccc(F)cc2)cc1
inactive: dose: 3.12 mg/kg/injection, schedule: Q01DX009 (ip), vehicle: Klucel (hydroxypropylcellulose) (HPC) 92 % of control | [1] 92 % of control | [2] 107 % of control | dose: 25.0 mg/kg/injection, schedule: Q01DX009 (ip), vehicle: Klucel (hydroxypropylcellulose) (HPC) 100 % of control | dose: 50.0 mg/kg/injection, schedule: Q01DX009 (ip), vehicle: Klucel (hydroxypropylcellulose) (HPC) 96 % of control | dose: 50.0 mg/kg/injection, schedule: Q04DX003 (ip), vehicle: Klucel (hydroxypropylcellulose) (HPC) 100 % of control | dose: 100.0 mg/kg/injection, schedule: Q04DX003 (ip), vehicle: Klucel (hydroxypropylcellulose) (HPC) 87 % of control | dose: 200.0 mg/kg/injection, schedule: Q04DX003 (ip), vehicle: Klucel (hydroxypropylcellulose) (HPC) 95 % of control

CCOC(=O)N1CCc2cc(OC)c(OC)cc2C1Cc1ccc(OC)c(OC)c1 (stereo not drawn)
inactive: dose: 50.0 mg/kg/injection, schedule: Q01DX005 (ip), vehicle: saline with Tween-80 92 % of control | dose: 100.0 mg/kg/injection, schedule: Q01DX005 (ip), vehicle: saline with Tween-80 105 % of control | dose: 200.0 mg/kg/injection, schedule: Q01DX005 (ip), vehicle: saline with Tween-80 92 % of control

Cn1nnnc1N/N=C(\Br)c1ccccc1
inactive: [3] 110 % of control | [4] 105 % of control | [5] 120 % of control | [6] 104 % of control | [7] 120 % of control | dose: 200.0 mg/kg/injection, schedule: Q04DX003 (ip), vehicle: saline with Tween-80 95 % of control | dose: 400.0 mg/kg/injection, schedule: Q04DX003 (ip), vehicle: saline with Tween-80 90 % of control

O=C1SC2(CCCCC2)SC1=O
inactive: [3] 95 % of control | [4] 95 % of control | [5] 104 % of control

S=C1SCCS1
inactive: [3] 100 % of control | [4] 95 % of control | [5] 104 % of control | dose: 100.0 mg/kg/injection, schedule: Q04DX003 (ip), vehicle: saline 91 % of control

O=C(Nc1cc(C(F)(F)F)ccc1Cl)ON1CCCCC1
inactive: dose: 12.5 mg/kg/injection, schedule: Q01DX009 (ip), vehicle: saline with Tween-80 107 % of control | [3] 94 % of control | [4] 114 % of control and 124 % of control | [5] 100 % of control and 102 % of control | [7] 91 % of control

Nc1nc(C=O)c(Cc2ccc(Br)cc2)c(=O)[nH]1
inactive: [3] 123 % of control | dose: 25.0 mg/kg/injection, schedule: Q04DX003 (ip), vehicle: saline with Tween-80 104 % of control | [4] 123 % of control | dose: 50.0 mg/kg/injection, schedule: Q04DX003 (ip), vehicle: saline with Tween-80 104 % of control | dose: 66.0 mg/kg/injection, schedule: Q01DX009 (ip), vehicle: saline with Tween-80 110 % of control | [6] 113 % of control

CC(=O)OCc1c(COC(C)=O)c(-c2ccccc2)n2c1CCC2
inactive: [1] 107 % of control

CC(=O)c1c(C)[nH]c(C(=O)OC(C)(C)C)c1C
inactive: dose: 100.0 mg/kg/injection, schedule: Q01DX001 (ip), vehicle: Klucel (hydroxypropylcellulose) (HPC) 113 % of control | dose: 200.0 mg/kg/injection, schedule: Q01DX001 (ip), vehicle: Klucel (hydroxypropylcellulose) (HPC) 100 % of control | dose: 400.0 mg/kg/injection, schedule: Q01DX001 (ip), vehicle: Klucel (hydroxypropylcellulose) (HPC) 109 % of control

CC(=O)Nc1onc(C)c1N
inactive: [8] 90 % of control | [9] 100 % of control | dose: 200.0 mg/kg/injection, schedule: Q01DX009 (ip), vehicle: saline 95 % of control

CCOc1cc(Cl)c(N)c(Cl)c1
inactive: [10] 114 % of control | [11] 98 % of control

Cc1ccc(N2C(=O)C=CC2=O)cc1
inactive: dose: 5.0 mg/kg/injection, schedule: Q01DX009 (ip), vehicle: saline sonified 100 % of control | dose: 10.0 mg/kg/injection, schedule: Q01DX009 (ip), vehicle: saline sonified 119 % of control | dose: 20.0 mg/kg/injection, schedule: Q01DX009 (ip), vehicle: saline sonified 100 % of control

O=C(O)CCc1nc(-c2ccccc2)c(-c2ccccc2)o1
inactive: [4] 100 % of control | [5] 104 % of control | [7] 119 % of control

CCOC(=S)N/N=C(\C)CC
inactive: dose: 2.5 mg/kg/injection, schedule: Q01DX009 (ip), vehicle: saline with Tween-80 93 % of control | dose: 5.0 mg/kg/injection, schedule: Q01DX009 (ip), vehicle: saline with Tween-80 93 % of control

CN(N/C=N/S(=O)(=O)c1ccccc1)c1ccccc1
inactive: [4] 94 % of control | [5] 93 % of control

CCCOc1cc([N+](=O)[O-])cc([N+](=O)[O-])c1
inactive: [10] 104 % of control | [11] 94 % of control

Cc1ccc(S(=O)(=O)N(c2ccccc2)c2ccccc2)cc1
inactive: dose: 87.5 mg/kg/injection, schedule: Q01DX009 (ip), vehicle: saline with Tween-80 96 % of control | dose: 175.0 mg/kg/injection, schedule: Q01DX009 (ip), vehicle: saline with Tween-80 96 % of control | dose: 350.0 mg/kg/injection, schedule: Q01DX009 (ip), vehicle: saline with Tween-80 101 % of control

CCOC(=O)C[n+]1c(C)sc2ccccc21
inactive: dose: 50.0 mg/kg/injection, schedule: Q01DX005 (ip), vehicle: saline 99 % of control | dose: 100.0 mg/kg/injection, schedule: Q01DX005 (ip), vehicle: saline 92 % of control | dose: 200.0 mg/kg/injection, schedule: Q01DX005 (ip), vehicle: saline 101 % of control

COc1ccc2c(c1OC)C1C3CC=CC3C2C2=[N+]1CCc1cc3c(cc12)OCO3 (stereo not drawn)
inactive: dose: 3.12 mg/kg/injection, schedule: Q01DX009 (ip), vehicle: saline 95 % of control | [1] 114 % of control | dose: 6.25 mg/kg/injection, schedule: Q01DX009 (ip), vehicle: saline 100 % of control | [2] 90 % of control | dose: 12.5 mg/kg/injection, schedule: Q01DX009 (ip), vehicle: saline 108 % of control | dose: 18.0 mg/kg/injection, schedule: Q01DX009 (ip), vehicle: Klucel (hydroxypropylcellulose) (HPC) 86 % of control

Cc1csc(NC(O)C(Cl)(Cl)Cl)n1 (stereo not drawn)
inactive: [4] 98 % of control | [5] 106 % of control | [7] 101 % of control

CC1(c2ccccc2)O[C@@H]2C[C@H]3[C@@H]4CCC5=CC(=O)C=C[C@]5(C)[C@@]4(F)[C@@H](O)C[C@]3(C)[C@]2(C(=O)CO)O1 (stereo partly drawn)
inactive: [8] 100 % of control | [9] 100 % of control | dose: 132.0 mg/kg/injection, schedule: Q04DX003 (ip), vehicle: saline 90 % of control and 95 % of control (2×) | dose: 200.0 mg/kg/injection, schedule: Q04DX003 (ip), vehicle: saline 86 % of control and 95 % of control and 100 % of control | dose: 300.0 mg/kg/injection, schedule: Q04DX003 (ip), vehicle: saline 105 % of control | dose: 400.0 mg/kg/injection, schedule: Q04DX003 (ip), vehicle: alcohol 105 % of control
